Molecules are shown by their SMILES.

This assay concerns the target T1, MER (Homo sapiens, UniProt Q12866).
T1 construct: recombinant phosphorylated forms of the kinase domains for AXL, MER and TYRO3; purchased Carna Biosciences 08-108
T1 sequence (Q12866 587-858 limits assumed): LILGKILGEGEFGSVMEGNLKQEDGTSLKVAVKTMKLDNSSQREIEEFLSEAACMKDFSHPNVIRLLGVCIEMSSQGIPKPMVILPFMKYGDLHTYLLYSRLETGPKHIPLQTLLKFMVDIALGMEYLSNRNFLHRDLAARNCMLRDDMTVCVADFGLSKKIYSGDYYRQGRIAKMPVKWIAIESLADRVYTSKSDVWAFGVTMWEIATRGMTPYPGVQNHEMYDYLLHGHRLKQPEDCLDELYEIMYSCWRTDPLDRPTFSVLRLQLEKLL
As to the kind of experiment: TR-FRET kinase assay, cMER. The class given is biochemical. On the procedure:
The biochemical potency of Compound 1 to inhibit the enzymatic activity of TAM family members was investigated by TR-FRET assays using recombinant phosphorylated forms of the kinase domains for AXL, MER and TYRO3.
Phospho-AXL (pAXL), cMER and Tyro3 kinase activities were measured by time-resolved fluorescence energy transfer (TR-FRET) assays. Autophosphorylation of AXL was carried out before the kinase assay by incubating the recombinant AXL protein (ThermoFisher Scientific; #PV4275) in buffer containing 50 mM Tris, pH 7.5, 0.2 mg/mL AXL, 5 mM ATP, 20 mM MgCl2 and 2 mM dithiothreitol (DTT) at room temperature for 1 hour. […] The plate was incubated for 30 minutes at room temperature, and homogenous time resolved fluorescence (HTRF) signal was measured on a PheraStar FS plate reader (BMG Labtech, Ortenberg, Germany). Percent inhibition was calculated for each concentration, and half maximal inhibitory concentration (IC50) value was generated from curve fitting with GraphPad Prism software (San Diego, Calif.).
Compound reversibility was determined by measuring the recovery of cMER enzymatic activity after a rapid and large dilution of the cMER-inhibitor complex. cMER, ATP, and biotin-labeled peptide substrate were diluted in kinase assay buffer containing 50 mM HEPES, pH 7.5, 10 mM MgCl2, 1 mM EGTA, 0.01% NP-40, and 2 mM DTT. […]
On the technique in general: Time-resolved FRET reads energy transfer from a long-lived donor to a nearby acceptor.

As usually defined, the IC50 is the concentration needed to halve the response being measured. As for `CC(C)C(=O)N1CCC(c2cc(-c3ccc(NC(=O)c4cn(C(C)C)c(=O)n(-c5ccccn5)c4=O)cc3)c3c(N)ncnn23)CC1` [Compound 1, N-(4-(4-Amino-7-(1-isobutyrylpiperidin-4-yl)pyrrolo[1,2-f][1,2,4]triazin-5-yl)phenyl)-1-isopropyl-2,4-dioxo-3-(pyridin-2-yl)-1,2,3,4-tetrahydropyrimidine-5-carboxamide], the “mode of inhibition with respect to ATP concentration” value (MER kinase assay, IC50 at 25, 100, 300, 1000 μM ATP (FIG. 1)) is “ATP-competitive mode of inhibition”. Also, where the note is “average from multiple lots, n=25, read-out: IC50 against MER”, the IC50 came to 3.17 ± 1.97 nM.

Source of the values: patent publication US12214036B2, “Combination therapy comprising AXL/MER and PD-1/PD-L1 inhibitors” (Incyte Corporation, priority 2020, dated 2025).
